Several values for one entry are separate records, joined by “and”; a condition that tells them apart may be missing. Equal entries are not always repeated.
Experiments:
[1] = Stability in enzyme-free control buffer; type: physicochemical; conditions: pH 7.4
Excerpt: (§1) A fundamental evaluation in drug development is the assessment of absorption, distribution, metabolism, excretion, and pharmacokinetics (ADME/PK) (Eddershaw et al., 2000, Drug Discovery Today 5(9): 409-414). […] Drug stability upon exposure to human liver microsomes and liver S9 cellular fractions is a common in vitro assay to approximate in vivo, liver-based drug metabolism (Richardson et al., 2016 Drug Metabolism Letters 10:83-90). First-pass metabolism is also often approximated in vitro using intestinal microsome and cellular S9 fractions (Hatley et al., 2017, Biopharmaceuticals & Drug Disposition, 38(2):155-160). […] Supernatants were analyzed for the presence of candidate prodrugs (parent molecule) and psilocin (the predicted metabolite) using Orbitrap LC-MS (Thermo Scientific) using previously described methods (Menendez-Perdomo et al., 2021, J Mass Spectrom, 56: e4683). […] Assay concentrations (μM) of both parent ‘prodrug’ molecule and psilocin metabolite, as quantified through LC-MS using routine standard curve procedures, were plotted as functions of assay time (minutes). The metabolism rate (T1/2) was determined from the metabolism curve plot using the one phase decay feature of GraphPad PRISM software (Version 9.2.0). The quantity of parent prodrug at time zero was set as 100%.

[2] = In vitro metabolic stability / psilocin release, liver fractions (HLM, HLS9); type: in vitro ADME, human; conditions: HLM and HLS9, 2 hours, 37° C.
Excerpt: as §1, with “100%. […]” for “100%.”

[3] = In vitro metabolic stability / psilocin release, AB serum; type: in vitro ADME; conditions: 10% human AB serum
Excerpt: as §1, with “100%. […]” for “100%.”

[4] = Mouse pharmacokinetic (PK) study, parent compound and psilocin metabolite in plasma; type: in vivo, C57Bl/6 mice; conditions: mouse; for Plasma concentration of psilocin: 24 h
Excerpt: Briefly, the procedure was as follows. […] 19, 2022.

## CN(C)CCc1c[nH]c2cccc(OP(=O)(O)O)c12 [psilocybin, reference compound]
[1]
  Stability in assay buffer: stability of psilocybin was confirmed in assay buffer
[2]
  Stability / conversion to psilocin in liver fractions: stable in liver fractions with no conversion to psilocin
[3]
  Stability / conversion to psilocin in serum: stable in serum with no conversion to psilocin
[4]; male, C57Bl/6, plasma, iv, 1 mg/kg i.v., individual animals, read-out: tmax of administered (parent) compound
  tmax: 5 min
[4]; 1 mg/kg i.v.
  Detectability of administered compound in plasma, i.v. administered animals: only detectable in i.v. administered animals
[4]; oral, any dose (1, 3, 10 mg/kg)
  Detectability of administered compound in plasma, orally administered animals: not detectable in orally administered animals at any dose
[4]; 1 mg/kg i.v., 5 min, individual animals, 1 mg/kg
  Plasma concentration of administered (parent) compound: 19.7 ng/mL and 76.8 ng/mL and 334 ng/mL
[4]; 1 mg/kg i.v., 0.25 h, individual animals, 1 mg/kg
  Plasma concentration of administered (parent) compound: 3.32 ng/mL and 8.95 ng/mL and 27.2 ng/mL
[4]; 1 mg/kg i.v., 0.5 h, individual animals, 1 mg/kg
  Plasma concentration of administered (parent) compound: No Peak and 2.35 ng/mL and 6.21 ng/mL
[4]; 1 mg/kg i.v., 1 h, individual animals, 1 mg/kg
  Plasma concentration of administered (parent) compound: No Peak
[4]; 1 mg/kg i.v., 2 h, individual animals
  Plasma concentration of administered (parent) compound: No Peak
[4]; 1 mg/kg i.v., 4 h, individual animals
  Plasma concentration of administered (parent) compound: No Peak
[4]; 1 mg/kg i.v., 6 h, individual animals
  Plasma concentration of administered (parent) compound: No Peak
[4]; 1 mg/kg i.v., 8 h, individual animals, 1 mg/kg
  Plasma concentration of administered (parent) compound: No Peak
[4]; 1 mg/kg i.v., individual animals
  tmax of administered (parent) compound: 5 min
[4]; 1 mg/kg i.v., individual animals, 1 mg/kg
  Cmax of administered (parent) compound: 19.7 ng/mL and 76.8 ng/mL and 334 ng/mL
[4]; 1 mg/kg i.v., mean ± SD
  Cmax of administered (parent) compound: 144 ± 167 ng/mL
  tmax of administered (parent) compound: 5 ± 0 min
[4]; prodrug 1.56 mg/kg oral (nominal 1 mg/kg), individual animals
  Plasma concentration of psilocin: BLQ (BLQ denotes below the lower limit of quantitation (0.2 ng/ml).)
[4]; prodrug 3 mg/kg oral, individual animals
  Plasma concentration of psilocin: BLQ (BLQ denotes below the lower limit of quantitation (0.2 ng/ml).)

Reference: patent US12065404B2, “C4-carboxylic acid-substituted tryptamine derivatives and methods of using” (priority 2022, dated 2024)
